US7098307B2, “Neo-tryptophan” (Mayo Foundation for Medical Education and Research, priority 1998, dated 2006)
Read-outs that look alike come from different tables or passages of the source. Each block holds one compound with its values, some of them ahead of it. Numbered stars: 1 amine (or outer) side, 2 acyl side, 3 side chain; on linkers, the order of the positions; unused ones are H or OH. Square brackets hold non-standard residues; d marks the D form. Ends that are not written are not given here. Peptide text beside a SMILES is read from it. Ala(indol-4-yl) = N[C@@H](Cc1cccc2[nH]ccc12)C(=O)O; X1 = O=C([C@@H](Cc1cccc2[nH]ccc12)N[*:1])[*:2]; NMeR = CN[C@@H](CCCNC(=N)N)C(=O)O; Tle = CC(C)(C)[C@H](N)C(=O)O; dOrn = NCCC[C@@H](N)C(=O)O; Dab = NCC[C@H](N)C(=O)O

Assays:
[1] = Catalepsy bar test in rats; format: in vivo, rat
Method: The following experiments were performed to assess the ability of NT69L to cause and influence catalepsy. Male Sprague-Dawley rats (150–250 g) or CD-1 mice (24–26 g) were housed in a temperature-controlled room in groups of five with free access to food and water. The animals were kept on a 12 hour light/dark cycle, and all tests were performed during the light cycle. […] Thirty minutes after injection, the animals were tested for catalepsy. For rats, the test involved simply placing the animal's fore paws on a suspended metal bar 10 mm in diameter, 11 cm above the counter. The time elapsed until the animal's fore paws touch the counter was recorded. […] The cut-off time was 20 seconds, and each animal was tested three times for each time point.

human NTR1 = target: T1, human NTR1 (Homo sapiens, UniProt P30989); assay: Competition binding with [3H]NT, membranes of CHO-K1 cells transfected with human NTR1
T1 construct: expressed in transfected cells; host or cells: CHO-K1
Method: (§1) CHO-K1 cells were stably transfected with nucleic acid encoding either the human NTR1 or the rat NTR1, and cultured in 150 mm petri plates with 35 mL of Dulbecco-modified Eagle's medium containing 100 μM minimal essential medium nonessential amino acids (GIBCO) supplemented with 5% (v/v) FetalClone II bovine serum product (Hyclone Labs, Logan, Utah). CHO cells (subculture 9–19) were harvested at confluency. Briefly, the medium from each plate was removed by aspiration, and the cells washed with 6 mL of 50 mM Tris-HCl (pH 7.4) and resuspended in 5–10 mL of Tris-HCl by scraping the cells with a rubber spatula. The resuspended cells were placed into a centrifuge tube and collected by centrifugation at 300× g for five minutes at 4° C. in a GPR centrifuge (Beckman Instruments, Fullerton, Calif.). The cellular pellet (in 50 mM Tris-HCl, 1 mM EDTA, pH 7.4) was stored at […] until radioligand binding was performed.
(§2) The supernatant was decanted and discarded, and the cellular pellet was resuspended in 2 mL of Tris-HCl, 1 mM EDTA (pH 7.4) followed by homogenization with a Brinkmann Polytron at setting 6 for ten seconds. Centrifugation was repeated as above and the supernatant was decanted and discarded. The resulting final cellular pellet was resuspended in 50 mM Tris-HCl, lmM EDTA, 0.1% bovine serum albumin, and 0.2 mM bacitracin.
(§3) Incubation was at 20° C. for 30 minutes. Each reaction was terminated by addition of cold 0.9% NaCl (5×1.5 mL) followed by rapid filtration through a GF/B filter strip that had been pretreated with 0.2% polyethylenimine.

5HT2A receptor = 5HT2A receptor (Homo sapiens, UniProt P28223); assay: Competitive binding with [3H]ketanserin, human brain tissue; settings: for competition with labeled ketanserin for binding at the 5HT2A receptor: human brain tissue
[2] = Degradation in human plasma (HPLC peak area); format: in vitro ADME; settings: for half-life at 0.5 mg/mL: human
Description: (§4) For the degradation studies, data were plotted in linear form as a semi-log plot with SigmaPlot for Windows Version 4.00. Linear regression on these plots provided the parameters used to calculate the half-time (t1/2) for degradation of each polypeptide. The correlation coefficient (R) for the linear regression was taken as a measure of the goodness-of-fit.

[3] = Body temperature (hypothermia) in rats; settings: for peak body temperature reduction: 18 nmol injected into the PAG, at 30 minutes; for induction of hypothermia: intraperitoneal administration (NT64L 1 mg/kg); for Peak BT change / time of Peak BT change: rats
[4] = Hot plate test (antinociception, % MPE) in rats; settings: for peak % MPE value: 18 nmol injected into the PAG, at 30 minutes; for induction of antinociception (hot plate): intraperitoneal administration (NT64L 1 mg/kg); for Peak % MPE / time of Peak % MPE: rats
rat NTR1 = target: T2, rat NTR1 (Rattus norvegicus, UniProt P20789); assay: Competition binding with [3H]NT, membranes of CHO-K1 cells transfected with rat NTR1
T2 construct: expressed in transfected cells; host or cells: CHO-K1
Method: as §1, §2, §3

[5] = Degradation in rat intestinal preparation; format: in vitro ADME; settings: pH 7.4, 37° C., read-out: half-time, Rat Intestinal Preparation (converted)
Method: For intestinal preparations, rats were sacrificed by decapitation, and the small intestines removed. The tissue was washed with ice-cold PBS (10 mM, pH 7.4). About […] of intestinal tissue was added to about 10 mL of PBS and homogenized using a Brinkman polytron homogenizer (setting 6). After homogenization, 10 mL of PBS was added to 10 mL of the intestinal homogenate. […] The supernatant was removed and stored at −20° C. until testing. Immediately before incubation with the polypeptide, the intestinal preparation was filtered through a 0.2 μm filter. Testing procedures were similar to those for the plasma tests.
as §4

[6] = Degradation in rat plasma (HPLC peak area); format: in vitro ADME
Description: as §4

[7] = CHO cells, read-out: Kd hNTR (Table VII)
[8] = 25% plasma, 37° C., 0.5 mg/mL polypeptide, read-out: half-time, Plasma Human (converted)
[9] = 0.5 mg/kg intraperitoneal (footnote)

Compound: CN1CCN(C2=Nc3cc(Cl)ccc3Nc3ccccc32)CC1 [Clozapine, reference compound]
catalepsy ([1]; 20 mg/kg ip): did not cause catalepsy
Kd (human NTR1; [7]): > 100 µM

Compound: O=C(CCCN1CCC(O)(c2ccc(Cl)cc2)CC1)c1ccc(F)cc1 [Haloperidol, reference compound]
catalepsy ([1]; 1 mg/kg ip): profound catalepsy
ED50 at 30 min ([1]; male, Sprague-Dawley, rat, in vivo, ip, at 30 minutes, read-out: ED50 haloperidol-induced catalepsy): 0.13 mg/kg
ED50 at 60 min ([1]; male, Sprague-Dawley, rat, in vivo, ip, at 60 minutes, read-out: ED50 haloperidol-induced catalepsy): 0.26 mg/kg
ED50 at 180 min ([1]; male, Sprague-Dawley, rat, in vivo, ip, at 180 minutes, read-out: ED50 haloperidol-induced catalepsy): 0.31 mg/kg

Compound: N[C@@H](Cc1cccc2[nH]ccc12)C(=O)O [L-neo-Trp, (2S)-2-amino-3-(1H-4-indolyl)propanoic acid]
binding to human NT receptors from CHO cells (human NTR1): does not bind
Kd (human NTR1; [7]): > 100 µM
Kd (5HT2A receptor): > 100 µM
competition with labeled ketanserin for binding at the 5HT2A receptor (5HT2A receptor): did not compete

Compound: CC[C@H](C)[C@H](NC(=O)[C@H](Cc1cccc2[nH]ccc12)NC(=O)[C@@H]1CCCN1C(=O)[C@H](CCCNC(=N)N)NC(=O)[C@@H](N)CCCNC(=N)N)C(=O)N[C@@H](CC(C)C)C(=O)O [NT64L]
Kd (5HT2A receptor): 6.6 µM
competition with labeled ketanserin for binding at the 5HT2A receptor (5HT2A receptor): found to compete
peak body temperature reduction [3]: 2.1 °C
induction of hypothermia [3]: did not induce
peak % MPE value [4]: 76%
induction of antinociception (hot plate) [4]: did not induce
half-life at 0.5 mg/mL [2, 8]: 1.4 h

Compound: CC(C)C[C@H](NC(=O)[C@@H](NC(=O)[C@H](Cc1cccc2[nH]ccc12)NC(=O)[C@@H]1CCCN1C(=O)[C@H](CCCNC(=N)N)NC(=O)[C@@H](N)CCCNC(=N)N)C(C)(C)C)C(=O)O [NT65L] (H-RRP[Ala(indol-4-yl)][Tle]L-OH; N-terminus and C-terminus assumed)
reduction in binding affinity compared to NT64L (human NTR1; NT receptor binding): 3 fold
half-life at 0.5 mg/mL ([2]; plasma): 1.1 h

Compound: CC(C)C[C@H](NC(=O)[C@@H](NC(=O)[C@@H](Cc1cccc2[nH]ccc12)NC(=O)[C@@H]1CCCN1C(=O)[C@H](CCCNC(=N)N)NC(=O)[C@H](N)CCCCN)C(C)(C)C)C(=O)O [NT66D] (H-[dK]RP[X1][Tle]L-OH; N-terminus and C-terminus assumed)
Kd (human NTR1): 0.21 ± 0.02 µM
Peak BT change [3, 9]: −1.0 @ ° C.
time of Peak BT change [3, 9]: 30 min
induction of hypothermia [3]: did induce
Peak % MPE [4, 9]: 58% @
time of Peak % MPE [4, 9]: 30 min
induction of antinociception (hot plate) [4]: did induce
Kd (rat NTR1): 0.077 ± 0.009 µM

Compound: CN[C@@H](CCCNC(=N)N)C(=O)N[C@@H](CCN)C(=O)N1CCC[C@H]1C(=O)N[C@@H](Cc1cccc2[nH]ccc12)C(=O)N[C@H](C(=O)N[C@@H](CC(C)C)C(=O)O)C(C)(C)C [NT71] (H-[NMeR][Dab]P[Ala(indol-4-yl)][Tle]L-OH; N-terminus and C-terminus assumed)
half-life [5]: 5.1 h
Peak BT change ([3]; 1 mg/kg intraperitoneal): −2.0 @ ° C.
time of Peak BT change ([3]; 1 mg/kg intraperitoneal): 40 min
Peak BT change ([3]; 5 mg/kg intraperitoneal): −2.4 @ ° C.
time of Peak BT change ([3]; 5 mg/kg intraperitoneal): 90 min
induction of hypothermia [3]: did induce
Peak % MPE ([4]; 1 mg/kg intraperitoneal): 70% @
time of Peak % MPE ([4]; 1 mg/kg intraperitoneal): 60 min
Peak % MPE ([4]; 5 mg/kg intraperitoneal): 79% @
time of Peak % MPE ([4]; 5 mg/kg intraperitoneal): 180 min
induction of antinociception (hot plate) [4]: did induce
half-life at 0.5 mg/mL ([6]; 25% plasma, 37° C., 0.5 mg/mL polypeptide, read-out: half-time, Plasma Rat (converted)): 260 h

Compound: CC(C)C[C@H](NC(=O)[C@@H](NC(=O)[C@H](Cc1cccc2[nH]ccc12)NC(=O)[C@@H]1CCCN1C(=O)[C@H](N)CCCCN)C(C)(C)C)C(=O)O [NT72] (H-[dK]P[Ala(indol-4-yl)][Tle]L-OH; N-terminus and C-terminus assumed)
half-life [5]: 54 h
Kd (human NTR1): 0.64 µM
Peak BT change ([3]; 5 mg/kg intraperitoneal): −2.8 @ ° C.
time of Peak BT change ([3]; 5 mg/kg intraperitoneal): 180 min
induction of hypothermia [3]: did induce
Peak % MPE ([4]; 5 mg/kg intraperitoneal): 100% @
time of Peak % MPE ([4]; 5 mg/kg intraperitoneal): 120 min
induction of antinociception (hot plate) [4]: did induce
half-life at 0.5 mg/mL [2, 8]: 3000 h
Kd (rat NTR1): 0.27 ± 0.03 µM

Compound: CC[C@H](C)[C@H](NC(=O)[C@H](Cc1cccc2[nH]ccc12)NC(=O)[C@@H]1CCCN1C(=O)[C@H](N)CCCCN)C(=O)N[C@@H](CC(C)C)C(=O)O [NT73] (H-[dK]P[Ala(indol-4-yl)]IL-OH; N-terminus and C-terminus assumed)
half-life [5]: 0.83 h
Kd (human NTR1): 0.045 ± 0.003 µM
Peak BT change ([3]; 5 mg/kg intraperitoneal): −0.9 @ ° C.
time of Peak BT change ([3]; 5 mg/kg intraperitoneal): 90 min
induction of hypothermia [3]: did induce
Peak % MPE ([4]; 5 mg/kg intraperitoneal): 40% @
time of Peak % MPE ([4]; 5 mg/kg intraperitoneal): 120 min
induction of antinociception (hot plate) [4]: did induce
half-life at 0.5 mg/mL [2, 8]: 300 h
Kd (rat NTR1): 0.032 ± 0.006 µM

Compound: NCCc1c[nH]c2ccc(O)cc12 [Serotonin, reference compound]
Kd (human NTR1; [7]): > 100 µM
Kd (rat NTR1; CHO cells, read-out: Kd rNTR (Table VII)): > 100 µM

Compound: NT24″27″: L-Arg-D-Orn-L-Pro-L-Tyr-L-Ile-L-Leu (R[dOrn]PYIL) [reference compound]
peak body temperature reduction [3]: 1.1 °C
induction of hypothermia [3]: did not induce
peak % MPE value [4]: 20%
induction of antinociception (hot plate) [4]: did not induce

Other lines, results leading:

competition with labeled ketanserin for binding at the 5HT2A receptor (5HT2A receptor): found to compete
half-time, Plasma Human [2]: about 0.85 hours
half-life at 0.5 mg/mL ([2]; plasma): 0.85 h
Compound: CC[C@H](C)[C@H](NC(=O)[C@H](Cc1ccc(O)cc1)NC(=O)[C@@H]1CCCN1C(=O)[C@H](CCCNC(=N)N)NC(=O)[C@H](N)CCCCN)C(=O)N[C@@H](CC(C)C)C(=O)O [NT2, reference compound] (H-[dK]RPYIL-OH; N-terminus and C-terminus assumed)

half-life at 0.5 mg/mL ([6]; plasma): 110 h
Compound: CC(C)C[C@H](NC(=O)[C@@H](NC(=O)[C@H](Cc1cccc2[nH]ccc12)NC(=O)[C@@H]1CCCN1C(=O)[C@@H](N)CCN)C(C)(C)C)C(=O)O [NT74] (H-[Dab]P[Ala(indol-4-yl)][Tle]L-OH; N-terminus and C-terminus assumed)

half-life [5]: 0.27 h
half-life at 0.5 mg/mL ([6]; plasma): 1.6 h
Compound: CC[C@H](C)[C@H](NC(=O)[C@H](Cc1cccc2[nH]ccc12)NC(=O)[C@@H]1CCCN1C(=O)[C@@H](N)CCN)C(=O)N[C@@H](CC(C)C)C(=O)O [NT75] (H-[Dab]P[Ala(indol-4-yl)]IL-OH; N-terminus and C-terminus assumed)
